In ChEMBL document CHEMBL4507296 (2021):

Legend:
[1] = target: Dual specificity tyrosine-phosphorylation-regulated kinase 1A (Homo sapiens) (UniProt Q13627); conditions: Compound concentration 1000.0 nM
[2] = target: Mitogen-activated protein kinase kinase kinase 14 (Homo sapiens) (UniProt Q99558); conditions: Compound concentration 1000.0 nM
[3] = target: Mitogen-activated protein kinase kinase kinase 6 (Homo sapiens) (UniProt O95382); conditions: Compound concentration 1000.0 nM
[4] = target: Tyrosine-protein kinase CSK (Homo sapiens) (UniProt P41240); conditions: Compound concentration 1000.0 nM
[5] = species on record: Rattus norvegicus; conditions: Compound concentration 10.0 uM
[6] = target: Casein kinase I isoform delta (Homo sapiens) (UniProt P48730); conditions: Compound concentration 1000.0 nM
[7] = target: Tyrosine-protein kinase receptor UFO (Homo sapiens) (UniProt P30530); conditions: Compound concentration 1000.0 nM
[8] = target: MTNR1B (Cricetulus griseus) (UniProt G3H6N9); test: Melatonin 2 (hamster) CEREP ligand profiling; conditions: Compound concentration 10.0 uM
[9] = target: NT-3 growth factor receptor (Homo sapiens) (UniProt Q16288); conditions: Compound concentration 1000.0 nM
[10] = target: Mitogen-activated protein kinase kinase kinase 4 (Homo sapiens) (UniProt Q9Y6R4); conditions: Compound concentration 1000.0 nM
[11] = target: Mitogen-activated protein kinase kinase kinase 12 (Homo sapiens) (UniProt Q12852); conditions: Compound concentration 1000.0 nM
[12] = target: Gastrin/cholecystokinin type B receptor (Homo sapiens) (UniProt P32239); test: CCK2 (human) CEREP ligand profiling; conditions: Compound concentration 10.0 uM
[13] = test system: Serine/threonine-protein kinase B-raf (Homo sapiens), P15056 [V600E]; conditions: Compound concentration 1000.0 nM
[14] = target: Ephrin type-A receptor 7 (Homo sapiens) (UniProt Q15375); conditions: Compound concentration 1000.0 nM
[15] = test system: Tyrosine-protein kinase ABL1 (Homo sapiens), P00519 [F317L]; conditions: Compound concentration 1000.0 nM
[16] = target: Serine/threonine-protein kinase 35 (Homo sapiens) (UniProt Q8TDR2); conditions: Compound concentration 1000.0 nM
[17] = target: Tyrosine-protein kinase JAK2 (Homo sapiens) (UniProt O60674); conditions: Compound concentration 1000.0 nM
[18] = target: 5-hydroxytryptamine receptor 1D (Homo sapiens) (UniProt P28221); conditions: Compound concentration 10.0 uM
[19] = target: Activin receptor type-1 (Homo sapiens) (UniProt Q04771); conditions: Compound concentration 1000.0 nM
[20] = target: Fibroblast growth factor receptor 4 (Homo sapiens) (UniProt P22455); conditions: Compound concentration 1000.0 nM
[21] = target: Myosin-IIIa (Homo sapiens) (UniProt Q8NEV4); conditions: Compound concentration 1000.0 nM
[22] = target: Serine/threonine-protein kinase MRCK alpha (Homo sapiens) (UniProt Q5VT25); conditions: Compound concentration 1000.0 nM
[23] = target: Serine/threonine-protein kinase PAK 3 (Homo sapiens) (UniProt O75914); conditions: Compound concentration 1000.0 nM
[24] = target: Mast/stem cell growth factor receptor Kit (Homo sapiens) (UniProt P10721); conditions: Compound concentration 1000.0 nM
[25] = test system: ALK tyrosine kinase receptor (Homo sapiens), Q9UM73 [L1196M]; conditions: Compound concentration 1000.0 nM
[26] = target: Misshapen-like kinase 1 (Homo sapiens) (UniProt Q8N4C8); conditions: Compound concentration 1000.0 nM
[27] = target: Serine/threonine-protein kinase N1 (Homo sapiens) (UniProt Q16512); conditions: Compound concentration 1000.0 nM
[28] = target: 5-hydroxytryptamine receptor 3A (Homo sapiens) (UniProt P46098); conditions: Compound concentration 10.0 uM
[29] = target: Casein kinase II subunit alpha' (Homo sapiens) (UniProt P19784); conditions: Compound concentration 1000.0 nM
[30] = target: Interferon-induced, double-stranded RNA-activated protein kinase (Homo sapiens) (UniProt P19525); conditions: Compound concentration 1000.0 nM
[31] = target: D(2) dopamine receptor (Homo sapiens) (UniProt P14416); conditions: Compound concentration 10.0 uM
[32] = test system: Mast/stem cell growth factor receptor Kit (Homo sapiens), P10721 [V559D,T670I]; conditions: Compound concentration 1000.0 nM
[33] = target: Dual specificity mitogen-activated protein kinase kinase 2 (Homo sapiens) (UniProt P36507); conditions: Compound concentration 1000.0 nM
[34] = target: Ribosomal protein S6 kinase alpha-3 (Homo sapiens) (UniProt P51812); conditions: Compound concentration 1000.0 nM
[35] = target: Mitogen-activated protein kinase 7 (Homo sapiens) (UniProt Q13164); conditions: Compound concentration 1000.0 nM
[36] = target: Maternal embryonic leucine zipper kinase (Homo sapiens) (UniProt Q14680); conditions: Compound concentration 1000.0 nM
[37] = test system: Epidermal growth factor receptor (Homo sapiens), P00533 [UNDEFINED MUTATION]; conditions: Compound concentration 1000.0 nM
[38] = target: Beta-1 adrenergic receptor (Homo sapiens) (UniProt P08588); conditions: Compound concentration 10.0 uM
[39] = target: Serine/threonine-protein kinase Nek2 (Homo sapiens) (UniProt P51955); conditions: Compound concentration 1000.0 nM
[40] = target: cGMP-dependent protein kinase 1 (Homo sapiens) (UniProt Q13976); conditions: Compound concentration 1000.0 nM
[41] = target: Mitogen-activated protein kinase kinase kinase 7 (Homo sapiens) (UniProt O43318); conditions: Compound concentration 1000.0 nM
[42] = target: Protein-tyrosine kinase 6 (Homo sapiens) (UniProt Q13882); conditions: Compound concentration 1000.0 nM
[43] = target: Epidermal growth factor receptor (Homo sapiens) (UniProt P00533); conditions: Compound concentration 1000.0 nM
[44] = target: Non-receptor tyrosine-protein kinase TNK1 (Homo sapiens) (UniProt Q13470); conditions: Compound concentration 1000.0 nM
[45] = target: MAP/microtubule affinity-regulating kinase 4 (Homo sapiens) (UniProt Q96L34); conditions: Compound concentration 1000.0 nM
[46] = target: Serine/threonine-protein kinase pim-2 (Homo sapiens) (UniProt Q9P1W9); conditions: Compound concentration 1000.0 nM
Chain of Serine/threonine-protein kinase pim-2 (Homo sapiens) (Q9P1W9 whole entry, looked up): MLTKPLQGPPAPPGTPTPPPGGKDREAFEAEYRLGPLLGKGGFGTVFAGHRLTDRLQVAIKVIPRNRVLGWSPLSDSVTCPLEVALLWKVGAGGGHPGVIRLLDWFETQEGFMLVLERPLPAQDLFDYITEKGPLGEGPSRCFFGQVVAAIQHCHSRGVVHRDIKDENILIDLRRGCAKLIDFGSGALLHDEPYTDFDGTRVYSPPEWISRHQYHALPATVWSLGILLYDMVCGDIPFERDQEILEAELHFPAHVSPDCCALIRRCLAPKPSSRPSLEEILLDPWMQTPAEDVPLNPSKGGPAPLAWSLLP

Chain of Activin receptor type-1 (Homo sapiens) (Q04771 whole entry): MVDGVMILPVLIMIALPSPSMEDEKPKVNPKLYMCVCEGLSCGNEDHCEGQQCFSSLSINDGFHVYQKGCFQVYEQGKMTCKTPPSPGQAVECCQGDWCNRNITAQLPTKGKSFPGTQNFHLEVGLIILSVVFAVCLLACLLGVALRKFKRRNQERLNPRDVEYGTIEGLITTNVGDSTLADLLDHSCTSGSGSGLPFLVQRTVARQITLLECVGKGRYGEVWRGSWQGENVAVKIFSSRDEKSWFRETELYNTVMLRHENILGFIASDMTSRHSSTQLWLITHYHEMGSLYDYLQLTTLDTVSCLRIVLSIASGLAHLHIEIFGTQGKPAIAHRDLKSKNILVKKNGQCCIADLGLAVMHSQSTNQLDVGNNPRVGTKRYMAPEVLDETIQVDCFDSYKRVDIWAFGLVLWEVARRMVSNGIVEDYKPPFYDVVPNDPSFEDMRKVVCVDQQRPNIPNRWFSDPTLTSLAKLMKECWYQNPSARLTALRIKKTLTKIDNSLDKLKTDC
Chain of Gastrin/cholecystokinin type B receptor (Homo sapiens) (P32239 whole entry): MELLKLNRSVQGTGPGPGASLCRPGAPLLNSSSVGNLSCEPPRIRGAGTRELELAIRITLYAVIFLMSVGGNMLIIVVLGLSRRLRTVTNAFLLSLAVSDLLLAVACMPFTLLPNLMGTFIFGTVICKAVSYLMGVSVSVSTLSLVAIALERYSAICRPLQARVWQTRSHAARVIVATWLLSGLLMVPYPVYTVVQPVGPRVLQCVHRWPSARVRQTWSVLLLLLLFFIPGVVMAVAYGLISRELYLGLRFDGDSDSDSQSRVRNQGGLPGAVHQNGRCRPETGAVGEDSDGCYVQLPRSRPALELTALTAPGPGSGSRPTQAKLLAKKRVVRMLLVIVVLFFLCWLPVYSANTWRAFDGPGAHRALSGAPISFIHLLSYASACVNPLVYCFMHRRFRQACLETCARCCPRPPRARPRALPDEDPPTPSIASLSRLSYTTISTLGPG
Chain of Mitogen-activated protein kinase kinase kinase 14 (Homo sapiens) (Q99558 whole entry, looked up): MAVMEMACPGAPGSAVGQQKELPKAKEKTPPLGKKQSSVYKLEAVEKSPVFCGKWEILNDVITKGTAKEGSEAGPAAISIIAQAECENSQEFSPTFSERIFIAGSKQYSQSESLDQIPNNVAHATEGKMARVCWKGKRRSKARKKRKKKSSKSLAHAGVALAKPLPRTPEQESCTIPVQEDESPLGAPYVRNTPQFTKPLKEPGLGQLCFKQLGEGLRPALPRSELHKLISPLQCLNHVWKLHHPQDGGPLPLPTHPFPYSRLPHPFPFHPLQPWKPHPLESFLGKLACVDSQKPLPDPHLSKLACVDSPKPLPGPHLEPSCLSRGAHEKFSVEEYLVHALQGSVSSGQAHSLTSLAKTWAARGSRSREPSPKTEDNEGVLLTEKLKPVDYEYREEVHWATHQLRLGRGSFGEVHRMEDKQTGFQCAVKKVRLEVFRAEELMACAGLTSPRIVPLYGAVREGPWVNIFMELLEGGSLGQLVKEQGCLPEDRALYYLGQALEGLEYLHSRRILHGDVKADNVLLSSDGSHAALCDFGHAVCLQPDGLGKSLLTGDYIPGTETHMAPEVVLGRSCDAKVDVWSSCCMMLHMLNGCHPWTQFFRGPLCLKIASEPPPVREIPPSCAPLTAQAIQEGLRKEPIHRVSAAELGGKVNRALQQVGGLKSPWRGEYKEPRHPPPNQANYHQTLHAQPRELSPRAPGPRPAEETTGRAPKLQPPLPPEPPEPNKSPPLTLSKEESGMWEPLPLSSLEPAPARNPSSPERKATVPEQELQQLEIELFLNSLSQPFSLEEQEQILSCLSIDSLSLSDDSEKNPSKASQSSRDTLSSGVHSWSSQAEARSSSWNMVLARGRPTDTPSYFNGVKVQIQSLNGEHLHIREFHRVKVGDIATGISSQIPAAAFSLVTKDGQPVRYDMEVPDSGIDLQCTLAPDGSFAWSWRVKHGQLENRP
Chain of Serine/threonine-protein kinase Nek2 (Homo sapiens) (P51955 whole entry): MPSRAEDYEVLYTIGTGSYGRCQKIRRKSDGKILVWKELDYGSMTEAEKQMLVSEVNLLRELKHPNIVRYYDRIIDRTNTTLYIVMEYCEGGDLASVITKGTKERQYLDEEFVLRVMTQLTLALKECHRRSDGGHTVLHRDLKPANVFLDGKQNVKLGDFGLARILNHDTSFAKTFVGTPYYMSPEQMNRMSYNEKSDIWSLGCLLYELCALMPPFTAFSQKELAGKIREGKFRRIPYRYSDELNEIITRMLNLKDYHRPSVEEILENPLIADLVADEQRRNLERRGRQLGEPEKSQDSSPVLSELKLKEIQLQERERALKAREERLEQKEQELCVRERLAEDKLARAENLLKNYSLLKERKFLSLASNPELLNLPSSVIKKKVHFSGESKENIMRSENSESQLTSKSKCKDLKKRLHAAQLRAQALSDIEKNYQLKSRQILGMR
Chain of Casein kinase I isoform delta (Homo sapiens) (P48730 whole entry, looked up, canonical isoform): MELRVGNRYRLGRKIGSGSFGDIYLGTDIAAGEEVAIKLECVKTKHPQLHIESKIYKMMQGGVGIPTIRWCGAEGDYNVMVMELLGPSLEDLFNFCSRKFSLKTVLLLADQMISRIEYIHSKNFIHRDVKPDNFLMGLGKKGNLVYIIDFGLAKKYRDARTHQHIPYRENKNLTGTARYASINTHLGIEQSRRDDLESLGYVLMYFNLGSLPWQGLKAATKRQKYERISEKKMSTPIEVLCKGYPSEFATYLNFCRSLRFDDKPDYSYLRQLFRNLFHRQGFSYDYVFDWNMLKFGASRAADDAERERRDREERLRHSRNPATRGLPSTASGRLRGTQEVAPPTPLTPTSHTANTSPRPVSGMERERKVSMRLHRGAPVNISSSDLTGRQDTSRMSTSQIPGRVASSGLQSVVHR
Chain of 5-hydroxytryptamine receptor 3A (Homo sapiens) (P46098 whole entry): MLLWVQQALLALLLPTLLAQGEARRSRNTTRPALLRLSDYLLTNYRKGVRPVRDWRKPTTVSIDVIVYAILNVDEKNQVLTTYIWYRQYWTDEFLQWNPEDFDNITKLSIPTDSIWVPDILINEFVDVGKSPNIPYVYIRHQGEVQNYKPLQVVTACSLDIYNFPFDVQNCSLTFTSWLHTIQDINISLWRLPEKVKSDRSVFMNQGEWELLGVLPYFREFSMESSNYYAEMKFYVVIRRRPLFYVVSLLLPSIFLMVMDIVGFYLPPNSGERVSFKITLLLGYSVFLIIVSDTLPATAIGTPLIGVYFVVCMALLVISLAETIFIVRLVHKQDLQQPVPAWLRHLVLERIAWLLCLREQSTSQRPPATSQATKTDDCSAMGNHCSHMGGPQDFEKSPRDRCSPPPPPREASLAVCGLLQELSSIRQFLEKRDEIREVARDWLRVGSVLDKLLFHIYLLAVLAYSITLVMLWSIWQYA
Chain of Misshapen-like kinase 1 (Homo sapiens) (Q8N4C8 whole entry, looked up): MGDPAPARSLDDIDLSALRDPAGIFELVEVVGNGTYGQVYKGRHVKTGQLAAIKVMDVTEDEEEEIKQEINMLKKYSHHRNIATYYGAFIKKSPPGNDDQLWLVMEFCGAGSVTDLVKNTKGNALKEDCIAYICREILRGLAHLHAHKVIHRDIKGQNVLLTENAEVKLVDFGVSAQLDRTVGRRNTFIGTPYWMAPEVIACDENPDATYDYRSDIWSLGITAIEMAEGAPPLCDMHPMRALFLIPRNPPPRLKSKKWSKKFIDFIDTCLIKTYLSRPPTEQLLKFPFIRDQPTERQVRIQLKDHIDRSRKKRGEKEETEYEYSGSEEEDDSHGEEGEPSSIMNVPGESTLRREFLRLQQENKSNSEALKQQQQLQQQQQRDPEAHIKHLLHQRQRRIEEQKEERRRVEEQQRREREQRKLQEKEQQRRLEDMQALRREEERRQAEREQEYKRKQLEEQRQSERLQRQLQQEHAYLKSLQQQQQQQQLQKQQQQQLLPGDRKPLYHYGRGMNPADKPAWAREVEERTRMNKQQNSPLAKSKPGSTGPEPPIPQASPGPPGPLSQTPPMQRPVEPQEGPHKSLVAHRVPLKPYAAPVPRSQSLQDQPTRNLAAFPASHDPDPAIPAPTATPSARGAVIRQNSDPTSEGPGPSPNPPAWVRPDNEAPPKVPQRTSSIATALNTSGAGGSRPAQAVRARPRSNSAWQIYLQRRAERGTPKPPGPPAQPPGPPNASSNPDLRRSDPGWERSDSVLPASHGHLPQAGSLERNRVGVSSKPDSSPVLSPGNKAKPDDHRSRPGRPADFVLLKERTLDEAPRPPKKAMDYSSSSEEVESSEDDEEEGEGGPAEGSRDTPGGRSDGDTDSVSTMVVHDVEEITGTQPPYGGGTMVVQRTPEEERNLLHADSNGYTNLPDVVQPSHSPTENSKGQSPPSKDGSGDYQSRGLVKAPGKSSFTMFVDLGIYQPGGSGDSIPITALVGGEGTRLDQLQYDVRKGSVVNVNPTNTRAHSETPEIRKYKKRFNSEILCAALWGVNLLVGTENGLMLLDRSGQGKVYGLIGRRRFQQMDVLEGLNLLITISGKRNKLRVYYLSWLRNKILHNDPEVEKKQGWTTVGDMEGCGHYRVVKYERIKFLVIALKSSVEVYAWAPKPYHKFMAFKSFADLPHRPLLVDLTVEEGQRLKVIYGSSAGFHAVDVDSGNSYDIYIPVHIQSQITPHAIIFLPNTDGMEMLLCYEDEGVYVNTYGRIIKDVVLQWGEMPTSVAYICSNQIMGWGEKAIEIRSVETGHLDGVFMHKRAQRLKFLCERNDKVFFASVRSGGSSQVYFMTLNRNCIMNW

## C[C@H](c1ccc(F)cc1)N(Cc1cccc(C(=O)O)c1)C(=O)c1cnc2ccccc2c1 [PF-05105679]
[1]
  residual activity: 100%
[2]
  residual activity: 100%
[3]
  residual activity: 84%
[4]
  residual activity: 100%
[5]
  inhibition: 70%
[6]
  residual activity: 92%
[7]
  residual activity: 100%
[8]
  inhibition: 32%
[9]
  residual activity: 92%
[10]
  residual activity: 100%
[11]
  residual activity: 100%
[12]
  inhibition: 35%
[13]
  residual activity: 100%
[14]
  residual activity: 80%
[15]
  residual activity: 99%
[16]
  residual activity: 93%
[17]
  residual activity: 88%
[18]
  inhibition: -1.68%
[19]
  residual activity: 100%
[20]
  residual activity: 91%
[21]
  residual activity: 100%
[22]
  residual activity: 100%
[23]
  residual activity: 96%
[24]
  residual activity: 100%
[25]
  residual activity: 76%
[26]
  residual activity: 100%
[27]
  residual activity: 100%
[28]
  inhibition: -1.19%
[29]
  residual activity: 86%
[30]
  residual activity: 100%
[31]
  inhibition: 7.61%
[32]
  residual activity: 98%
[33]
  residual activity: 100%
[34]
  residual activity: 89%
[35]
  residual activity: 78%
[36]
  residual activity: 100%
[37]
  residual activity: 100%
[38]
  inhibition: 7.42%
[39]
  residual activity: 94%
[40]
  residual activity: 100%
[41]
  residual activity: 100%
[42]
  residual activity: 83%
[43]
  residual activity: 100%
[44]
  residual activity: 100%
[45]
  residual activity: 100%
[46]
  residual activity: 100%
